Results published in PMC10709440, “High-throughput ligand profile characterization in novel cell lines expressing seven heterologous insect olfactory receptors for the detection of volatile plant biomarkers” (Scientific Reports, 2023).
Like-named read-outs stand apart in the source and are kept apart here.

Key:
Drosophila OR13a = target: T1, Drosophila OR13a (Drosophila melanogaster, UniProt Q9VXL0); assay: Calcium ion fluorescence (GCaMP6) assay, OR13a stable HEK293 cell line; type: cell-based; details: for OR13a response (VUAA1-normalized) at 1 μM / OR13a response (VUAA1-normalized) at 10 μM / OR13a response (VUAA1-normalized) at 100 μM: OR13a cell line; for OR13a response (VUAA1-normalized) at 1 μM: VOC concentration 1 μM; for OR13a response (VUAA1-normalized) at 10 μM: VOC concentration 10 μM; for OR13a response (VUAA1-normalized) at 100 μM: VOC concentration 100 μM
T1 construct: expressed in transfected cells
T1 sequence (Q9VXL0 1-418): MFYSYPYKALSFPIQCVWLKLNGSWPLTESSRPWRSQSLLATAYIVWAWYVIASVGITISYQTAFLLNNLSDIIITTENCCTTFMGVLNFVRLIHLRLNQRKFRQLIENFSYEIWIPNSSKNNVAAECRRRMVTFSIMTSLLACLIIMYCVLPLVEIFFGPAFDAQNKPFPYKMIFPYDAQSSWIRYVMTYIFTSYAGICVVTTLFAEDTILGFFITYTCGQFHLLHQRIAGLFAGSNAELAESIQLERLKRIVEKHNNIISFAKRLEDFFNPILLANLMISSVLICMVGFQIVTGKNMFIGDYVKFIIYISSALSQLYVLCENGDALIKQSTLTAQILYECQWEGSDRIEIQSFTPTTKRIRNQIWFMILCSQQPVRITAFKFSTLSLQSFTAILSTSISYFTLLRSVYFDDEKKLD
T1 sequence (Q9VNB5 1-486 partner): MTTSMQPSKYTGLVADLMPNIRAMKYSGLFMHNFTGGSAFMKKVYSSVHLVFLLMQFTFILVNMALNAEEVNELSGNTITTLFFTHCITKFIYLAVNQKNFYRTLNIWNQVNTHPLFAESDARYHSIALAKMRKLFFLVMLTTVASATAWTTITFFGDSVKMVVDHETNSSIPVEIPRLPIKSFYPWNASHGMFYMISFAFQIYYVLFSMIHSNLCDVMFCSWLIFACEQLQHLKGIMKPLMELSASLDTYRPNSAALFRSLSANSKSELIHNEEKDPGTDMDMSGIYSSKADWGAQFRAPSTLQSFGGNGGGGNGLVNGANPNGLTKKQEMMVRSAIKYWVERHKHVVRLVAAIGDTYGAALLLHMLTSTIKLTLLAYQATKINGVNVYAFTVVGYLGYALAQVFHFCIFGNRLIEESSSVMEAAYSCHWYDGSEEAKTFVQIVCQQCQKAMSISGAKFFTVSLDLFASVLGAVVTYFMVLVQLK
In short: (§1)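 HEK293 lines stably expressing each Drosophila OR with GCaMP6, doxycycline-induced (1 μg/mL) 48 or 72 h. Fluorescence recorded 5 s baseline then 30 s after VOC injection at pH 7.3; ΔF=(FMAX−F0)/F0, normalized to 50 µM VUAA1 response per line, triplicate wells averaged; concentration series 0.01–100 μM.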

Drosophila OR10a = target: T2, Drosophila OR10a (Drosophila melanogaster, UniProt Q9VYZ1); assay: Calcium ion fluorescence (GCaMP6) assay, OR10a stable HEK293 cell line; type: cell-based; details: for OR10a response (VUAA1-normalized) at 1 μM / OR10a response (VUAA1-normalized) at 10 μM / OR10a response (VUAA1-normalized) at 100 μM: OR10a cell line; for OR10a response (VUAA1-normalized) at 1 μM: VOC concentration 1 μM; for OR10a response (VUAA1-normalized) at 10 μM: VOC concentration 10 μM; for OR10a response (VUAA1-normalized) at 100 μM: VOC concentration 100 μM
T2 construct: expressed in transfected cells
T2 sequence (Q9VYZ1 1-406): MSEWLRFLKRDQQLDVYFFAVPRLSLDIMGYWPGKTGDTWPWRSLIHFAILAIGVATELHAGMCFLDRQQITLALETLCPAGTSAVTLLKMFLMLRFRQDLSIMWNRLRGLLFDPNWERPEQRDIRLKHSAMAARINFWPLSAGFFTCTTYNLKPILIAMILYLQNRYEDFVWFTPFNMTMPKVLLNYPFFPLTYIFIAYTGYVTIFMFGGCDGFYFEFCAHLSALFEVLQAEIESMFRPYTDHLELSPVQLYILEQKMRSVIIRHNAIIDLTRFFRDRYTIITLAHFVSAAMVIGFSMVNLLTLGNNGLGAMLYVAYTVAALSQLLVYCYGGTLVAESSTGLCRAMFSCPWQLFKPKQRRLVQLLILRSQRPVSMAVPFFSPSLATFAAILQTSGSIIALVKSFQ
T2 sequence (Q9VNB5 1-486 partner): T1 sequence (Q9VNB5 1-486 partner)
In short: as §1

[1] = HEK293, read-out: OR13a Average response (VUAA1-normalized), 1 μM VOC, 50 μM VUAA1 = 1, responses not exceeding 0.05 considered 0
[2] = HEK293, read-out: OR13a Average response (VUAA1-normalized), 10 μM VOC, 50 μM VUAA1 = 1, responses not exceeding 0.05 considered 0
[3] = HEK293, read-out: OR13a Average response (VUAA1-normalized), 100 μM VOC, 50 μM VUAA1 = 1, responses not exceeding 0.05 considered 0
[4] = HEK293, read-out: OR13a response (VUAA1-normalized response), VOC concentration 1 μM
[5] = HEK293, read-out: OR13a response (VUAA1-normalized response), VOC concentration 10 μM
[6] = HEK293, read-out: OR13a response (VUAA1-normalized response), VOC concentration 100 μM
[7] = ligand concentration 1 (unit not given), threshold 0.05, below shown as 0
[8] = ligand concentration 10 (unit not given), threshold 0.05, below shown as 0
[9] = ligand concentration 100 (unit not given), threshold 0.05, below shown as 0
[10] = HEK293, read-out: OR10a Average response (VUAA1-normalized), 1 μM VOC, 50 μM VUAA1 = 1, responses not exceeding 0.05 considered 0
[11] = HEK293, read-out: OR10a Average response (VUAA1-normalized), 10 μM VOC, 50 μM VUAA1 = 1, responses not exceeding 0.05 considered 0
[12] = HEK293, read-out: OR10a Average response (VUAA1-normalized), 100 μM VOC, 50 μM VUAA1 = 1, responses not exceeding 0.05 considered 0
[13] = HEK293, read-out: OR10a response (VUAA1-normalized response), VOC concentration 1 μM
[14] = HEK293, read-out: OR10a response (VUAA1-normalized response), VOC concentration 10 μM
[15] = HEK293, read-out: OR10a response (VUAA1-normalized response), VOC concentration 100 μM
[16] = HEK293, 1 μM VOC, 50 μM VUAA1 = 1, responses not exceeding 0.05 considered 0, read-out: OR10a Average response (VUAA1-normalized)
[17] = HEK293, 10 μM VOC, 50 μM VUAA1 = 1, responses not exceeding 0.05 considered 0, read-out: OR10a Average response (VUAA1-normalized)
[18] = HEK293, 100 μM VOC, 50 μM VUAA1 = 1, responses not exceeding 0.05 considered 0, read-out: OR10a Average response (VUAA1-normalized)
[19] = 1 μM VOC, 50 μM VUAA1 = 1, responses not exceeding 0.05 considered 0
[20] = 10 μM VOC, 50 μM VUAA1 = 1, responses not exceeding 0.05 considered 0
[21] = 100 μM VOC, 50 μM VUAA1 = 1, responses not exceeding 0.05 considered 0

SMILES | activation at 1 µM (Drosophila OR13a; [1]) [%] | activation at 10 µM (Drosophila OR13a; [2]) [%] | activation at 100 µM (Drosophila OR13a; [3]) [%] | activation at 1 µM (Drosophila OR13a; [4]) [%] | activation at 10 µM (Drosophila OR13a; [5]) [%] | activation at 100 µM (Drosophila OR13a; [6]) [%] | DF norm AVERAGE OR13a (Drosophila OR13a; [7]) | DF norm AVERAGE OR13a (Drosophila OR13a; [8]) | DF norm AVERAGE OR13a (Drosophila OR13a; [9]) | activation at 1 µM (Drosophila OR10a; [13]) [%] | activation at 10 µM (Drosophila OR10a; [14]) [%] | activation at 100 µM (Drosophila OR10a; [15]) [%] | DF norm AVERAGE OR10a (Drosophila OR10a; [7]) | DF norm AVERAGE OR10a (Drosophila OR10a; [8]) | DF norm AVERAGE OR10a (Drosophila OR10a; [9]) | activation at 1 µM (Drosophila OR10a; [16]) [%] | activation at 10 µM (Drosophila OR10a; [17]) [%] | activation at 100 µM (Drosophila OR10a; [18]) [%] | OR13a response (VUAA1-normalized) at 1 μM (Drosophila OR13a) | OR13a response (VUAA1-normalized) at 10 μM (Drosophila OR13a) | also measured
CCOC(=O)c1ccccc1 [ethyl benzoate] | 1.69 | 2.64 | 1.67 | 0 | 0 | 0 | 0 | 0 | 0 | 29 | 45 | 49 | 0.2908 | 0.4538 | 0.4934 | – | – | – | – | – | activation at 1 µM (Drosophila OR10a; [10]): 29%; activation at 10 µM (Drosophila OR10a; [11]): 45%; activation at 100 µM (Drosophila OR10a; [12]): 49%
CCCCCC(=O)OCC [ethyl hexanoate] | 3.2 | 2.46 | 0 | 0 | 0 | 0 | 0 | 0 | 0 | 6 | 0 | 8.51 | 0.06289 | 0 | 0.08508 | 6 | 3 | 8.51 | – | – | –
CC/C=C\CCO [Z3-hexenol] | – | – | – | – | – | – | – | – | – | – | – | – | – | – | – | – | – | – | – | – | OR13a Average response (VUAA1-normalized) (Drosophila OR13a; [19]): 0.04; OR13a Average response (VUAA1-normalized) (Drosophila OR13a; [20]): 0.06; OR13a Average response (VUAA1-normalized) (Drosophila OR13a; [21]): 0.00; DF norm AVERAGE OR13a (Drosophila OR13a; ligand concentration 1 (unit not given), 0.05 threshold, values below shown as 0): 0; DF norm AVERAGE OR13a (Drosophila OR13a; ligand concentration 10 (unit not given), 0.05 threshold, values below shown as 0): 0.05798; DF norm AVERAGE OR13a (Drosophila OR13a; ligand concentration 100 (unit not given), 0.05 threshold, values below shown as 0): 0; OR10a Average response (VUAA1-normalized) (Drosophila OR10a; [19]): 0.17; OR10a Average response (VUAA1-normalized) (Drosophila OR10a; [20]): 0.19; OR10a Average response (VUAA1-normalized) (Drosophila OR10a; [21]): 0.10; DF norm AVERAGE OR10a (Drosophila OR10a; ligand concentration 1 (unit not given), […]): 0.1736; DF norm AVERAGE OR10a (Drosophila OR10a; ligand concentration 10 (unit not given), […]): 0.1946; DF norm AVERAGE OR10a (Drosophila OR10a; ligand concentration 100 (unit not given), […]): 0.1046
CCCCCOC(C)=O [pentyl acetate] | 4 | 0.671 | 4.32 | – | – | – | 0 | 0 | 0 | – | – | – | 0.109 | 0.07718 | 0.3011 | 11 | 8 | 30 | 0.00 | 0.00 | OR13a response (VUAA1-normalized) at 100 μM (Drosophila OR13a): 0.00; OR10a response (VUAA1-normalized) at 1 μM (Drosophila OR10a): 0.11; OR10a response (VUAA1-normalized) at 10 μM (Drosophila OR10a): 0.08; OR10a response (VUAA1-normalized) at 100 μM (Drosophila OR10a): 0.30
CCCCOC(C)=O [butyl acetate] | 0 | 0 | 1.56 | 0 | 0 | 0 | 0 | 0 | 0 | 0 | 0 | 0 | 0 | 0 | 0 | – | – | – | – | – | activation at 1 µM (Drosophila OR10a; [10]): 3%; activation at 10 µM (Drosophila OR10a; [11]): 0%; activation at 100 µM (Drosophila OR10a; [12]): 5%
CCCCCCCCC=O [nonanal] | 0 | 0 | 0 | – | – | – | 0 | 0 | 0 | – | – | – | 0 | 0 | 0 | 0 | 3 | 0 | 0.00 | 0.00 | OR13a response (VUAA1-normalized) at 100 μM (Drosophila OR13a): 0.00; OR10a response (VUAA1-normalized) at 1 μM (Drosophila OR10a): 0.00; OR10a response (VUAA1-normalized) at 10 μM (Drosophila OR10a): 0.00; OR10a response (VUAA1-normalized) at 100 μM (Drosophila OR10a): 0.00
C=CCc1ccc(O)c(OC)c1 [eugenol] | 0 | 0 | 0 | 0 | 0 | 0 | 0 | 0 | 0 | 8.49 | 6 | 0 | 0.08485 | 0.05743 | 0 | 8.49 | 6 | 0 | – | – | –
C=CC(C)(O)CCC=C(C)C (stereo not drawn) [linalool] | 1.21 | 4.47 | 0 | – | – | – | 0 | 0 | 0 | – | – | – | 0 | 0.06934 | 0 | 2 | 7 | 0 | 0.00 | 0.00 | OR13a response (VUAA1-normalized) at 100 μM (Drosophila OR13a): 0.00; OR10a response (VUAA1-normalized) at 1 μM (Drosophila OR10a): 0.00; OR10a response (VUAA1-normalized) at 10 μM (Drosophila OR10a): 0.07; OR10a response (VUAA1-normalized) at 100 μM (Drosophila OR10a): 0.00
